Source: US20150238487A1, “NOVEL ERGOLINE DERIVATIVES AND USES THEREOF” (MAP Pharmaceuticals, Inc., priority 2012, published 2015)

Key:
[1] = target: T1, Serotonin 5-HT1F (Homo sapiens, UniProt P30939); test: cAMP HTRF assay, Serotonin 5-HT1F; format: cell-based; details: CHO-K1, cAMP
T1 construct: expressed in transfected cells; host or cells: CHO-K1
Experimental: (§1) Receptor […] activity assays were performed using 8′OH-2-CF3-dihydroergotamine (8′OH-2-CF3-DHE). Table 1 summarizes the cell lines (CHO-K1/HEK293 transfected with relevant human receptor) and the assays performed to detect any agonist or antagonist activity.
(§2) cAMP HTRF (Gi) studies were conducted to monitor activity for 8′OH-2CF3-dihydroergotamine (8′OH-2CF3-DHE) against the receptors indicated in Table 1 above. Cells expressing the human recombinant receptor of interest were grown in media without antibiotic and detached by gentle flushing with PBS-EDTA (5 mM EDTA), recovered by centrifugation and resuspended in assay buffer (KRH: 5 mM KCl, 1.25 mM MgSO4, 124 mM NaCl, 25 mM HEPES, 13.3 mM glucose, 1.25 mM KH2PO4, 1.45 mM CaCl2, 0.5 g/L BSA). Dose response curves were performed in parallel with the reference compounds. For agonist tests (96-well plates), 12 μL of cells was mixed with 6 μL of the test compound at increasing concentrations and 6 μL of forskolin and then incubated for 30 minutes at room temperature. Lysis buffer was added and after a 1 hour incubation, cAMP concentrations was determined according to the manufacturer specification with the HTRF kit. […] Lysis buffer was added and after a 1 hour incubation, cAMP concentrations were determined according to the manufacturer specification, with the HTRF kit.

[2] = system: NMDA (NR1/NR2A/NR2B/NR2C/NR2D); test: NMDA receptor channel Fluo-8 calcium FLIPR assay; format: cell-based, human; details: HEK293, Fluo-8 calcium FLIPR, agonist and antagonist assessment
Experimental: Studies for NMDA receptors, NR1, NR2A, NR2B, NR2C, NR2D receptor, were conducted to monitor receptor activity for 8′OH-2CF3-dihydroergotamine (8′OH-2CF3-DHE) using the Fluo-8 calcium kit and a Fluorescence Imaging Plate Reader (FLIPR^TETRA™) instrument. The following channels were evaluated: Cloned NMDA receptor (NR1/NR2A) channel (encoded by the GRIN1 and GRIN2A genes, coexpressed in HEK293 cells; Cloned NMDA receptor (NR1/NR2B) channel (encoded by the GRIN1 and GRIN2B genes, coexpressed in HEK293 cells; Cloned NMDA receptor (NR1/NR2C) channel (encoded by the GRIN1 and GRIN2C genes, coexpressed in HEK293 cells; and Cloned NMDA receptor (NR1/NR2D) channel (encoded by the GRIN1 and GRIN2D genes, transiently coexpressed in HEK293 cells.
For the agonist assessment, the effect of 8′OH-2CF3-DHE was evaluated in the absence of the positive control agonist. The signal, elicited in the presence of the agonist (100 μM Glutamic acid+20 μM Glycine), was set to 100% activation and the signal in the presence of the vehicle control (Mg^2+-free HB-PS) was set to 0% activation.
For the antagonist assessment, NR1/NR2A and NR1/NR2B was activated with the positive control agonist (100 μM Glutamic acid+20 μM Glycine). The ability of 8′OH-2CF3-DHE to inhibit the signal was examined after agonist stimulation and compared to the positive control antagonist (MK-801). […]

[3] = target: T2, OX1 (Homo sapiens, UniProt O43613); test: Aequorin assay, Orexin OX1; format: cell-based; details: antagonism, CHO-AEQ
T2 construct: expressed in transfected cells; host or cells: CHO-AEQ (CHO-K1 coexpressing mitochondrial apoaequorin)
Experimental: as §1
Aequorin assays were conducted to monitor activity for 8′OH-2CF3-dihydroergotamine (8′OH-2CF3-DHE) against the receptors indicated in Table 1 above (except for mGlu3 and mGlu5). CHO-K1 cells coexpressing mitochondrial apoaequorin and the recombinant human receptor of interest were grown to mid-log phase in culture media without antibiotics and then detached with PBS-EDTA, centrifuged and resuspended in assay buffer (DMEM/HAM's F12 with HEPES, without phenol red+0.1% BSA, protease free) at a concentration of 1×10^6 cell/mL. […]
50 μL of the cell suspension was mixed with 50 μL of test or reference agonist in a 96-well plate. The resulting emission of light was recorded using Hamamatsu Functional Drug Screening System 6000 (FDSS 6000) luminometer. […]
To standardize the emission of recorded light (and determine of the “100% signal”) across plates and across different experiments, some wells contained 100 μM digitonin or a saturating concentration of ATP (20 μM).

[4] = target: T3, Adenosine A2a (Homo sapiens, UniProt P29274); test: cAMP HTRF assay, Adenosine A2a; format: cell-based; details: agonism; HEK293, cAMP
T3 construct: expressed in transfected cells; host or cells: HEK293
Experimental: as §1
as §2, with “HTRF (Gs)” for “HTRF (Gi)”, “with 12” for “with 6”, “concentrations” for “concentrations and 6 μL of forskolin”

T3 sequence (P29274 whole entry): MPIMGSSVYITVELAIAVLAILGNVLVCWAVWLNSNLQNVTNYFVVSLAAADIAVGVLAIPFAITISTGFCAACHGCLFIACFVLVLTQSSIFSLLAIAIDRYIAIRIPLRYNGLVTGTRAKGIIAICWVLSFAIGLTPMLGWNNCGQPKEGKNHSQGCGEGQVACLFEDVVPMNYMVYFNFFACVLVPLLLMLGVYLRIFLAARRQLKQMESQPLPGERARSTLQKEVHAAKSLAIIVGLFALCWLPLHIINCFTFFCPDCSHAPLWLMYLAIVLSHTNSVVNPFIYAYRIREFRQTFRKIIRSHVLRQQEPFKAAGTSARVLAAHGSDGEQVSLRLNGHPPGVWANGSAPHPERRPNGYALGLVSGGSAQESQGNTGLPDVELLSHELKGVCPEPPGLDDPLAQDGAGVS
T1 sequence (P30939 whole entry): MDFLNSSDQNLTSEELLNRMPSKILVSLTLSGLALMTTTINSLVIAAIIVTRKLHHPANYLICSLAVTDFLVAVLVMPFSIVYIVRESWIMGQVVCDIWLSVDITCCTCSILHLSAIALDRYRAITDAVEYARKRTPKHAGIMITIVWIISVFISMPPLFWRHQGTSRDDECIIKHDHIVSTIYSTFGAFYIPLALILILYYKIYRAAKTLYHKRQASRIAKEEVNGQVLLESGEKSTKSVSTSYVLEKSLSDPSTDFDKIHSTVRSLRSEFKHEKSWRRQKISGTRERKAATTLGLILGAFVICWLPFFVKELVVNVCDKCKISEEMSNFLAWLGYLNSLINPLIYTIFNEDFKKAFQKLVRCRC
T2 sequence (O43613 whole entry): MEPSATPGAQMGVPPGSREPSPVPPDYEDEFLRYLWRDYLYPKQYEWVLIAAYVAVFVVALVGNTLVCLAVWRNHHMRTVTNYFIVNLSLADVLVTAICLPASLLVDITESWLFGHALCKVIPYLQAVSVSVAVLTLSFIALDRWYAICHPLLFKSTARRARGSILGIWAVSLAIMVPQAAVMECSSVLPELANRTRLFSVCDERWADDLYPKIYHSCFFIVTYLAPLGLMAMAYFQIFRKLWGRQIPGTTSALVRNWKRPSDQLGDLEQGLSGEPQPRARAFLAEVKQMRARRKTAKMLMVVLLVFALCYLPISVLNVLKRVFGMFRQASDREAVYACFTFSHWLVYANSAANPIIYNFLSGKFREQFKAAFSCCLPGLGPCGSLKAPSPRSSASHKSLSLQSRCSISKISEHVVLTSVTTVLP

With `CN1C[C@H](C(=O)N[C@]2(C)O[C@@]3(O)[C@@H]4CC[C@@H](O)N4C(=O)[C@H](Cc4ccccc4)N3C2=O)C[C@@H]2c3cccc4[nH]c(C(F)(F)F)c(c34)C[C@H]21` [8′OH-2-CF3-DHE, 8′-Hydroxy-2-CF3-dihydroergotamine] the “Activity (Agonism: EC50; Antagonism: IC50), 5-HT1F” value [1] was “Inactive”, the “Activity (Agonism: EC50; Antagonism: IC50), NMDA (NR1/NR2A/NR2B/NR2C/NR2D)” value [2] was “Inactive” and the IC50 [3] was greater than 10000 nM. It also gave an EC50 [4] of 5.27 nM and an Emax [4] of 25%.
